Test results taken from ChEMBL document CHEMBL1131152, “In vitro and in vivo activities of oligodeoxynucleotide-based thrombin inhibitors containing neutral formacetal linkages” (J Med Chem, 1998).

The compounds below were run against Prothrombin (Homo sapiens) (UniProt P00734) (assay: Relative prothrombin time was determined as the activity of the test ODN (oligodeoxynucleotide) relative to that of GS-522).

Relative PT	Compound
1.1	Cc1cn([C@H]2C[C@H](OCOC[C@H]3O[C@@H](n4cc(C)c(=O)[nH]c4=O)C[C@@H]3OP(=O)(O)OC[C@H]3O[C@@H](n4cnc5c(=O)nc(N)[nH]c54)C[C@@H]3OP(=O)(O)OC[C@H]3O[C@@H](n4cnc5c(=O)[nH]c(=N)[nH]c54)C[C@@H]3OP(=O)(O)OC[C@H]3O[C@@H](n4cc(C)c(=O)[nH]c4=O)C[C@@H]3OP(=O)(O)OC[C@H]3O[C@@H](n4cnc5c(=O)nc(N)[nH]c54)C[C@@H]3OP(=O)(O)OC[C@H]3O[C@@H](n4cc(C)c(=O)[nH]c4=O)C[C@@H]3OP(=O)(O)OC[C@H]3O[C@@H](n4cnc5c(=O)nc(N)[nH]c54)C[C@@H]3OP(=O)(O)OC[C@H]3O[C@@H](n4cnc5c(=O)[nH]c(=N)[nH]c54)C[C@@H]3OP(=O)(O)OC[C@H]3O[C@@H](n4cc(C)c(=O)[nH]c4=O)C[C@@H]3OP(=O)(O)OC[C@H]3O[C@@H](n4cc(C)c(=O)[nH]c4=O)C[C@@H]3OP(=O)(O)OC[C@H]3O[C@@H](n4cnc5c(=O)[nH]c(=N)[nH]c54)C[C@@H]3OP(=O)(O)OC[C@H]3O[C@@H](n4cnc5c(=O)nc(N)[nH]c54)C[C@@H]3O)[C@@H](COP(=O)(O)O[C@H]3C[C@H](n4cnc5c(=O)[nH]c(=N)[nH]c54)O[C@@H]3COP(=O)(O)O[C@H]3C[C@H](n4cnc5c(=O)nc(N)[nH]c54)O[C@@H]3COP(=O)(O)O)O2)c(=O)[nH]c1=O
0.6	Cc1cn([C@H]2C[C@H](OP(=O)(O)OC[C@H]3O[C@@H](n4cnc5c(=O)nc(N)[nH]c54)C[C@@H]3OCOC[C@H]3O[C@@H](n4cnc5c(=O)[nH]c(=N)[nH]c54)C[C@@H]3OP(=O)(O)OC[C@H]3O[C@@H](n4cc(C)c(=O)[nH]c4=O)C[C@@H]3OP(=O)(O)OC[C@H]3O[C@@H](n4cnc5c(=O)[nH]c(=N)[nH]c54)C[C@@H]3OP(=O)(O)OC[C@H]3O[C@@H](n4cc(C)c(=O)[nH]c4=O)C[C@@H]3OP(=O)(O)OC[C@H]3O[C@@H](n4cnc5c(=O)nc(N)[nH]c54)C[C@@H]3OP(=O)(O)OC[C@H]3O[C@@H](n4cnc5c(=O)[nH]c(=N)[nH]c54)C[C@@H]3OP(=O)(O)OC[C@H]3O[C@@H](n4cc(C)c(=O)[nH]c4=O)C[C@@H]3OP(=O)(O)OC[C@H]3O[C@@H](n4cc(C)c(=O)[nH]c4=O)C[C@@H]3OP(=O)(O)OC[C@H]3O[C@@H](n4cnc5c(=O)[nH]c(=N)[nH]c54)C[C@@H]3OCOC[C@H]3O[C@@H](n4cnc5c(=O)nc(N)[nH]c54)C[C@@H]3O)[C@@H](COP(=O)(O)O[C@H]3C[C@H](n4cc(C)c(=O)[nH]c4=O)O[C@@H]3COP(=O)(O)O[C@H]3C[C@H](n4cnc5c(=O)nc(N)[nH]c54)O[C@@H]3COP(=O)(O)O[C@H]3C[C@H](n4cnc5c(=O)[nH]c(=N)[nH]c54)O[C@@H]3COP(=O)(O)O)O2)c(=O)[nH]c1=O
0.7	Cc1cn([C@H]2C[C@H](OCOC[C@H]3O[C@@H](n4cnc5c(=O)nc(N)[nH]c54)C[C@@H]3OP(=O)(O)OC[C@H]3O[C@@H](n4cnc5c(=O)[nH]c(=N)[nH]c54)C[C@@H]3OP(=O)(O)OC[C@H]3O[C@@H](n4cc(C)c(=O)[nH]c4=O)C[C@@H]3OP(=O)(O)OC[C@H]3O[C@@H](n4cnc5c(=O)[nH]c(=N)[nH]c54)C[C@@H]3OP(=O)(O)OC[C@H]3O[C@@H](n4cc(C)c(=O)[nH]c4=O)C[C@@H]3OCOC[C@H]3O[C@@H](n4cnc5c(=O)nc(N)[nH]c54)C[C@@H]3OP(=O)(O)OC[C@H]3O[C@@H](n4cnc5c(=O)[nH]c(=N)[nH]c54)C[C@@H]3OP(=O)(O)OC[C@H]3O[C@@H](n4cc(C)c(=O)[nH]c4=O)C[C@@H]3OP(=O)(O)OC[C@H]3O[C@@H](n4cc(C)c(=O)[nH]c4=O)C[C@@H]3OP(=O)(O)OC[C@H]3O[C@@H](n4cnc5c(=O)[nH]c(=N)[nH]c54)C[C@@H]3OP(=O)(O)OC[C@H]3O[C@@H](n4cnc5c(=O)nc(N)[nH]c54)C[C@@H]3O)[C@@H](COP(=O)(O)O[C@H]3C[C@H](n4cc(C)c(=O)[nH]c4=O)O[C@@H]3COP(=O)(O)O[C@H]3C[C@H](n4cnc5c(=O)[nH]c(=N)[nH]c54)O[C@@H]3COP(=O)(O)O[C@H]3C[C@H](n4cnc5c(=O)[nH]c(=N)[nH]c54)O[C@@H]3COP(=O)(O)O)O2)c(=O)[nH]c1=O

The next lines start with the compound.

Compound	Relative PT
Cc1cn([C@H]2C[C@H](OCOC[C@H]3O[C@@H](n4cnc5c(=O)[nH]c(=N)[nH]c54)C[C@@H]3OP(=O)(O)OC[C@H]3O[C@@H](n4cnc5c(=O)nc(N)[nH]c54)C[C@@H]3O)[C@@H](COP(=O)(O)O[C@H]3C[C@H](n4cc(C)c(=O)[nH]c4=O)O[C@@H]3COP(=O)(O)O[C@H]3C[C@H](n4cnc5c(=O)[nH]c(=N)[nH]c54)O[C@@H]3COP(=O)(O)O[C@H]3C[C@H](n4cnc5c(=O)nc(N)[nH]c54)O[C@@H]3COCO[C@H]3C[C@H](n4cc(C)c(=O)[nH]c4=O)O[C@@H]3COP(=O)(O)O[C@H]3C[C@H](n4cnc5c(=O)[nH]c(=N)[nH]c54)O[C@@H]3COP(=O)(O)O[C@H]3C[C@H](n4cc(C)c(=O)[nH]c4=O)O[C@@H]3COP(=O)(O)O[C@H]3C[C@H](n4cnc5c(=O)[nH]c(=N)[nH]c54)O[C@@H]3COP(=O)(O)O[C@H]3C[C@H](n4cnc5c(=O)nc(N)[nH]c54)O[C@@H]3COP(=O)(O)O[C@H]3C[C@H](n4cc(C)c(=O)[nH]c4=O)O[C@@H]3COP(=O)(O)O[C@H]3C[C@H](n4cc(C)c(=O)[nH]c4=O)O[C@@H]3COP(=O)(O)O[C@H]3C[C@H](n4cnc5c(=O)nc(N)[nH]c54)O[C@@H]3COP(=O)(O)O[C@H]3C[C@H](n4cnc5c(=O)[nH]c(=N)[nH]c54)O[C@@H]3COP(=O)(O)O)O2)c(=O)[nH]c1=O	0.4
Cc1cn([C@H]2C[C@H](OP(=O)(O)OC[C@H]3O[C@@H](n4cnc5c(=O)nc(N)[nH]c54)C[C@@H]3OP(=O)(O)OC[C@H]3O[C@@H](n4cnc5c(=O)[nH]c(=N)[nH]c54)C[C@@H]3OP(=O)(O)OC[C@H]3O[C@@H](n4cc(C)c(=O)[nH]c4=O)C[C@@H]3OP(=O)(O)OC[C@H]3O[C@@H](n4cnc5c(=O)nc(N)[nH]c54)C[C@@H]3OP(=O)(O)OC[C@H]3O[C@@H](n4cc(C)c(=O)[nH]c4=O)C[C@@H]3OP(=O)(O)OC[C@H]3O[C@@H](n4cnc5c(=O)nc(N)[nH]c54)C[C@@H]3OCOC[C@H]3O[C@@H](n4cnc5c(=O)[nH]c(=N)[nH]c54)C[C@@H]3OP(=O)(O)OC[C@H]3O[C@@H](n4cc(C)c(=O)[nH]c4=O)C[C@@H]3OP(=O)(O)OC[C@H]3O[C@@H](n4cc(C)c(=O)[nH]c4=O)C[C@@H]3OP(=O)(O)OC[C@H]3O[C@@H](n4cnc5c(=O)[nH]c(=N)[nH]c54)C[C@@H]3OP(=O)(O)OC[C@H]3O[C@@H](n4cnc5c(=O)nc(N)[nH]c54)C[C@@H]3O)[C@@H](COP(=O)(O)O[C@H]3C[C@H](n4cc(C)c(=O)[nH]c4=O)O[C@@H]3COP(=O)(O)O[C@H]3C[C@H](n4cnc5c(=O)[nH]c(=N)[nH]c54)O[C@@H]3COP(=O)(O)O[C@H]3C[C@H](n4cnc5c(=O)nc(N)[nH]c54)O[C@@H]3COP(=O)(O)O)O2)c(=O)[nH]c1=O	0.8
Cc1cn([C@H]2C[C@H](OP(=O)(O)OC[C@H]3O[C@@H](n4cnc5c(=O)nc(N)[nH]c54)C[C@@H]3OCOC[C@H]3O[C@@H](n4cnc5c(=O)[nH]c(=N)[nH]c54)C[C@@H]3OP(=O)(O)OC[C@H]3O[C@@H](n4cc(C)c(=O)[nH]c4=O)C[C@@H]3OP(=O)(O)OC[C@H]3O[C@@H](n4cnc5c(=O)[nH]c(=N)[nH]c54)C[C@@H]3OP(=O)(O)OC[C@H]3O[C@@H](n4cc(C)c(=O)[nH]c4=O)C[C@@H]3OP(=O)(O)OC[C@H]3O[C@@H](n4cnc5c(=O)nc(N)[nH]c54)C[C@@H]3OCOC[C@H]3O[C@@H](n4cnc5c(=O)[nH]c(=N)[nH]c54)C[C@@H]3OP(=O)(O)OC[C@H]3O[C@@H](n4cc(C)c(=O)[nH]c4=O)C[C@@H]3OP(=O)(O)OC[C@H]3O[C@@H](n4cc(C)c(=O)[nH]c4=O)C[C@@H]3OP(=O)(O)OC[C@H]3O[C@@H](n4cnc5c(=O)[nH]c(=N)[nH]c54)C[C@@H]3OP(=O)(O)OC[C@H]3O[C@@H](n4cnc5c(=O)nc(N)[nH]c54)C[C@@H]3O)[C@@H](COP(=O)(O)O[C@H]3C[C@H](n4cc(C)c(=O)[nH]c4=O)O[C@@H]3COP(=O)(O)O[C@H]3C[C@H](n4cnc5c(=O)nc(N)[nH]c54)O[C@@H]3COP(=O)(O)O[C@H]3C[C@H](n4cnc5c(=O)[nH]c(=N)[nH]c54)O[C@@H]3COP(=O)(O)O)O2)c(=O)[nH]c1=O	0.6
Cc1cn([C@H]2C[C@H](OP(=O)(O)OC[C@H]3O[C@@H](n4cnc5c(=O)nc(N)[nH]c54)C[C@@H]3OP(=O)(O)OC[C@H]3O[C@@H](n4cnc5c(=O)[nH]c(=N)[nH]c54)C[C@@H]3OP(=O)(O)OC[C@H]3O[C@@H](n4cc(C)c(=O)[nH]c4=O)C[C@@H]3OP(=O)(O)OC[C@H]3O[C@@H](n4cnc5c(=O)[nH]c(=N)[nH]c54)C[C@@H]3OP(=O)(O)OC[C@H]3O[C@@H](n4cc(C)c(=O)[nH]c4=O)C[C@@H]3OP(=O)(O)OC[C@H]3O[C@@H](n4cnc5c(=O)nc(N)[nH]c54)C[C@@H]3OP(=O)(O)OC[C@H]3O[C@@H](n4cnc5c(=O)[nH]c(=N)[nH]c54)C[C@@H]3OP(=O)(O)OC[C@H]3O[C@@H](n4cc(C)c(=O)[nH]c4=O)C[C@@H]3OP(=O)(O)OC[C@H]3O[C@@H](n4cc(C)c(=O)[nH]c4=O)C[C@@H]3OP(=O)(O)OC[C@H]3O[C@@H](n4cnc5c(=O)[nH]c(=N)[nH]c54)C[C@@H]3OCOC[C@H]3O[C@@H](n4cnc5c(=O)nc(N)[nH]c54)C[C@@H]3O)[C@@H](COP(=O)(O)O[C@H]3C[C@H](n4cc(C)c(=O)[nH]c4=O)O[C@@H]3COP(=O)(O)O[C@H]3C[C@H](n4cnc5c(=O)nc(N)[nH]c54)O[C@@H]3COCO[C@H]3C[C@H](n4cnc5c(=O)[nH]c(=N)[nH]c54)O[C@@H]3COP(=O)(O)O)O2)c(=O)[nH]c1=O	0.7
